No end group written: not given here.
Assays:
recombinant TLR4/MD2 = target: T1, recombinant TLR4/MD2 (Homo sapiens, UniProt O00206+Q9Y6Y9); assay: Surface plasmon resonance binding to immobilized TLR4/MD2; details: SPR, ProteOn XPR36, GLH chip, 25 °C, PBS 0.1% Tween 20 with 2% DMSO, 1:1 model, 0-10 μM peptide
T1 construct: purchased R&D Systems
Procedure: Surface plasmon resonance (SPR) experiments were performed using a ProteOn^TM XPR36 instrument (Bio-Rad, Hercules, CA, USA) with a ProteOn^TM GLH sensor chip (Bio-Rad) at 25 °C. PBS supplemented with 0.1% Tween 20 (containing 2% dimethyl sulfoxide) was used as a running buffer and was continuously passed into the reaction chamber at 30 μL/min. A SPR sensing chip with recombinant TLR4/MD2 (R&D Systems, Minneapolis, MN, USA) that was immobilized by amino coupling was used to capture the peptide, according to the manufacturer’s protocol. […] The running buffer was injected into the empty channel as a reference. Sensor chip regeneration and desorption were achieved by injecting 10 mM Gly-HCl buffer (pH 2.5) before the next round of analyses. The experimental data were analyzed by ProteOn Manager^TM software (version 2.0). Binding curves were processed for the initial injection alignment and baseline, and a reference-subtracted sensorgram was globally fitted to the curves to describe a homogeneous 1:1 model. Data from the protein surfaces were grouped together to fit the kinetic rate constants (Ka and Kd). The equilibrium dissociation constant (KD) for the peptide-TLR4/MD2 interaction was calculated using the following equation:(5) KD=Kd/Ka

[1] = tested on: CTX-immunosuppressed Balb/c mice; assay: Serum cytokine and immunoglobulin ELISA in CTX-immunosuppressed mice; format: in vivo, mouse; details: peptide 10 mg/kg ip days 4-10, ELISA, n = 12
Procedure: Sigma-Aldrich, St. Louis, MO, USA) group, a LL-37 group, a Tα1 group, and a LTAa group. For the first 3 days, CTX (80 mg/kg mouse weight) was administered intraperitoneally once daily to establish the immunosuppressed animal model. From days 4 to 10 (7 days), peptides (10 mg/kg mouse weight) were administered intraperitoneally each day. The CTX group was only treated with CTX, and the control group was given sterile saline. The dose volume was 200 μL. Twenty-four hours after the last dose, the mice were killed and their tissues and blood collected for analysis. The body weight index was calculated in the following way:(2) Index (%)=final body weight-[…] body weight/initial body weight ×100% Serum was obtained from blood by centrifugation at 1000 × g for 20 min. Levels of TNF-α, IL-6, IL-1β, IgG, IgA, and IgM in the serum were detected by ELISA.

peritoneal macrophages = assay: Peritoneal macrophage phagocytosis (neutral red uptake) in CTX-immunosuppressed mice; format: in vivo, mouse; details: peritoneal macrophages of mice, OD 540 nm, CTX 80 mg/kg ip days 1-3, peptide 10 mg/kg ip days 4-10, control group 55.67%, n = 12
Procedure: Peritoneal macrophages were aseptically obtained from the different groups of mice by peritoneal lavage with 5 mL ice-cold phosphate-buffered saline (PBS). The peritoneal macrophages were further isolated by incubating peritoneal exudate cells at 37 °C in a moist atmosphere (5% CO2, 95% air) for 3 h to allow the cells to adhere. The adherent cells were washed twice and collected as peritoneal macrophages.
The phagocytic capacity of the peritoneal macrophages was measured by the neutral red uptake method [52]. […] The OD was measured using a microplate reader at 540 nm. The phagocytic rate was calculated in the following way:(4) hagocytic rate (%)=OD540(sample)/OD540(control) ×100% where OD540 (sample) is the absorbance at 540 nm by peptide-treated cells and OD540 (control) is the absorbance at 540 nm by the cells without peptides treated.

[2] = tested on: CTX-immunosuppressed Balb/c mice; assay: Body weight and immune organ indices in CTX-immunosuppressed mice; format: in vivo, mouse; details: CTX 80 mg/kg ip days 1-3, peptide 10 mg/kg ip days 4-10, n = 12
Excerpt: Female specific-pathogen-free (SPF) Balb/c mice (6-8 weeks of age, weighing 20 ± 2.0 g) were purchased from Charles River (Beijing, China). The mice were housed in a SPF environment at room temperature with a relative humidity of 55 ± 10% and allowed free access to food and water during the experiments. All of the animal protocols were approved by the Institutional Animal Care and Ethics Committee of the China Agricultural University (CAU20170430-4). […] Sigma-Aldrich, St. Louis, MO, USA) group, a LL-37 group, a Tα1 group, and a LTAa group. For the first 3 days, CTX (80 mg/kg mouse weight) was administered intraperitoneally once daily to establish the immunosuppressed animal model. From days 4 to 10 (7 days), peptides (10 mg/kg mouse weight) were administered intraperitoneally each day. The CTX group was only treated with CTX, and the control group was given sterile saline. The dose volume was 200 μL. Twenty-four hours after the last dose, the mice were killed and their tissues and blood collected for analysis. The body weight index was calculated in the following way:(2) Index (%)=final body weight-[…] body weight/initial body weight ×100% Spleen and thymus indices were calculated in the following way:(3) Index (mg/kg)=weight of thymus or spleen/body weight

RAW264.7 cells = assay: Cytokine production in RAW264.7 macrophages (ELISA); format: cell-based, mouse; details: RAW264.7, 10 μg/mL peptide, 12 h (Figure 3 legend; method says 24 h), n = 5
Procedure: RAW264.7 cells were stimulated with or without 10 μg/mL peptides for 24 h at 37 °C in a humidified incubator with 5% CO2. Levels of TNF-α, IL-6, and IL-1β in the culture supernatant were measured using enzyme-linked immunosorbent assay (ELISA) kits according to the manufacturer’s instructions

splenocyte T lymphocytes = assay: T lymphocyte subsets in splenocytes by flow cytometry; format: in vivo, mouse; details: versus group treated with CTX alone, peptide 10 mg/kg ip days 4-10, n = 12
Procedure: The spleen was collected, ground, and passed through 40-μm-mesh cell strainers filled with PBS to harvest the cell suspension. The cells were stained with CD3- PerCP, CD4-APC, and CD8-FITC for 30 min at 4 °C for T lymphocyte measurements. The results were analyzed using a Guava® easyCyte^TM 6-21 system and Guavasoft 3.1.1 software (Millipore, Burlington, MA, USA).

[3] = Ex vivo stability in plasma; format: in vitro ADME; details: rat plasma, in vitro, 37 °C, HPLC, log-linear regression; mean ± SEM of three biological replicates; read-out: t1/2, half-life in plasma (converted)
Procedure: The samples were collected into pre-chilled tubes containing 1 mL of acidic acetone (hydrochloric acid/acetone/H2O, 1:40:5, by volume). Subsequently, the mixture was centrifuged at 2 × 10^4 rpm at 4 °C for 20 min. The precipitates were dried in vacuo. The dried precipitates were dissolved in 0.5 mL of 1 M acetic acid. The peptide analysis was carried out according to the protocol for the study of Tα1 using HPLC [51]. The half-lives of the target peptides were calculated by a logarithm-linear regression analysis of the peptide concentrations.

T1 sequence (O00206 24-631 limits assumed, species assumed): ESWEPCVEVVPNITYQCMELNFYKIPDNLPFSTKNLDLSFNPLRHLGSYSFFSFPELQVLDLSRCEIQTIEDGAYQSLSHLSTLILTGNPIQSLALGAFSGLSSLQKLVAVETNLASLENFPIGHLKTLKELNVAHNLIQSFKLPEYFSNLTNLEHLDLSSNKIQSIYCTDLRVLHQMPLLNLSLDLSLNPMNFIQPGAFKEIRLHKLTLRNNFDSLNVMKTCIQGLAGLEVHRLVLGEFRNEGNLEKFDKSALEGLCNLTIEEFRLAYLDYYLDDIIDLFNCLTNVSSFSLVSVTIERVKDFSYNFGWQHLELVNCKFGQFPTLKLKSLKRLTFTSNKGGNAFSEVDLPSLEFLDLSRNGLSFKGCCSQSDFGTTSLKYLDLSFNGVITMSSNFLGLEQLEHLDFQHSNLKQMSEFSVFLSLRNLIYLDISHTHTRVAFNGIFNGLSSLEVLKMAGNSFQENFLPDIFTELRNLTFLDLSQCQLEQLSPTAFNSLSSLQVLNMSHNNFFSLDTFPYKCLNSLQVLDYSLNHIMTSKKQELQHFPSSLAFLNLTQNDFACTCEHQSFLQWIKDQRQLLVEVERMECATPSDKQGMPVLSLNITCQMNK
T1 sequence (Q9Y6Y9 19-160, species assumed): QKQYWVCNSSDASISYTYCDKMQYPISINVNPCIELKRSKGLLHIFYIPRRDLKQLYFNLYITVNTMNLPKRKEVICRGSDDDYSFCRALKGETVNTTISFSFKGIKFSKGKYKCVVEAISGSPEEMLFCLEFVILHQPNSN

- Ka for binding to TLR4/MD2 (recombinant TLR4/MD2): 7.38e+09 M⁻¹ s⁻¹
- Kd (rate constant) for binding to TLR4/MD2 (recombinant TLR4/MD2): 0.362 s⁻¹
- half-life [3]: 4.2 ± 1.13 h
Sequence: IGKEFKRIVQRIKDFLRNLVPRTEKEKKEVVE [LTAa]
- serum TNF-α, IL-6 and IL-1β levels [1]: significantly higher TNF-α, IL-6, and IL-1β concentrations than those in the Tα1- or LL-37-treated groups
- macrophage phagocytic rate (peritoneal macrophages): significantly higher phagocytic rates than those in the Tα1- or LL-37-treated groups
- body weight [2]: rapidly recovered their weight
- spleen and thymus index [2]: reversed this effect
- TNF-α, IL-6 and IL-1β production/secretion (RAW264.7 cells): remarkable increases
- CD4+:CD8+ T lymphocyte ratio (splenocyte T lymphocytes): higher

— article PMC6940896, “Development of a Highly Efficient Hybrid Peptide That Increases Immunomodulatory Activity Via the TLR4-Mediated Nuclear Factor-κB Signaling Pathway” (International Journal of Molecular Sciences, 2019)
